Measurements published in paper PMC9251361, “Effects of LPS Composition in Escherichia coli on Antibacterial Activity and Bacterial Uptake of Antisense Peptide-PNA Conjugates” (Frontiers in Microbiology, 2022).
Converted amounts (≈) assume the structure as drawn.

Assays:
[1] = system: E. coli BW25113; experiment: MIC broth microdilution; type: cell-based; conditions: Escherichia coli; Table 4; strain BW25113; MHB, 37°C, 18 h; read-out: MIC values, Carbenicillin
Procedure: (§1) All strains used in this study are listed in Supplementary Table S1. E. coli strains WD101 and WD101ΔeptAΔarnD (WD101ΔΔ) were kindly provided by Professor M. Stephen Trent (University of Georgia, USA). E. coli strains DB wild type, DB L5, and DB L9 were kindly provided by Dr. Douglas Browning (University of Birmingham, UK). Single deletion strains for envelope mutants were obtained from the Keio-collection (Baba et al., [2006]). All strains were grown in non-cation adjusted Muller Hinton broth (MHB) (Sigma, Cat. No. 70192). BPP-PNA conjugates (Table 1) were obtained as described previously (Good et al., [2001]; Ghosal et al., [2013]; Hansen et al., [2016]).
(§2) Minimum inhibitory concentration (MIC) values were determined by broth microdilution according to standard protocols adapted to peptide-based antimicrobial compounds (Goltermann and Nielsen, [2020]). Briefly, 190 μl bacterial cell culture containing ≈10^5 cfu/ml was dispensed into a 96-well plate (Thermo Scientific, Nunc Cat. No. 260896, 96F straight w/lid) along with 10 μl PNA stock solution or antibiotic. The plate was incubated in a Tecan Genios plate reader at 37°C for 18 h, and OD was measured every 20 min at 595 nm. The MIC was determined as the lowest concentration, which inhibited visible growth (OD < 0.1) in the wells. […] Experiments were performed in triplicates as a minimum.

[2] = system: E. coli BW25113 tolB mutant (Keio collection); experiment: MIC broth microdilution; type: cell-based; conditions: Escherichia coli, BW25113, 18 h, read-out: MIC values, Carbenicillin
Procedure: as §1, §2

[3] = system: E. coli BW25113 tolR mutant (Keio collection); experiment: MIC broth microdilution; type: cell-based; conditions: Escherichia coli, BW25113, 18 h, read-out: MIC values, Carbenicillin
Procedure: as §1, §2

[4] = system: E. coli BW25113 metL mutant (Keio collection); experiment: MIC broth microdilution; type: cell-based; conditions: Escherichia coli, BW25113, 18 h, read-out: MIC values, Carbenicillin
Procedure: as §1, §2

[5] = system: E. coli BW25113 tolQ mutant (Keio collection); experiment: MIC broth microdilution; type: cell-based; conditions: Escherichia coli, BW25113, 18 h, read-out: MIC values, Carbenicillin
Procedure: as §1, §2

[6] = system: E. coli BW25113 hydN mutant (Keio collection); experiment: MIC broth microdilution; type: cell-based; conditions: Escherichia coli, BW25113, 18 h, read-out: MIC values, Carbenicillin
Procedure: as §1, §2

[7] = system: E. coli BW25113 mrcB mutant (Keio collection); experiment: MIC broth microdilution; type: cell-based; conditions: Escherichia coli, BW25113, 18 h, read-out: MIC values, Carbenicillin
Procedure: as §1, §2

[8] = system: E. coli BW25113 ppiB mutant (Keio collection); experiment: MIC broth microdilution; type: cell-based; conditions: Escherichia coli, BW25113, 18 h, read-out: MIC values, Carbenicillin
Procedure: as §1, §2

[9] = system: E. coli tolB, tolQ, and tolR mutants; experiment: MIC broth microdilution, tol mutants as a group; type: cell-based, Escherichia coli
Procedure: as §2
The Pal-Tol-system, an envelope spanning complex involved in maintaining the outer membrane integrity, has previously been implicated in general antibiotic susceptibility, and thus was also investigated.

[10] = system: E. coli K12 MG1655; experiment: microbe, parasite or virus in culture; type: cell-based, Escherichia coli; conditions: Escherichia coli; Table 4; strain MG1655; MHB, 37°C, 18 h; read-out: MIC values, Carbenicillin
Procedure: as §1, §2

CC1(C)S[C@@H]2[C@H](NC(=O)C(C(=O)O)c3ccccc3)C(=O)N2[C@H]1C(=O)O (stereo partly shown) [Carbenicillin]
MIC [1]: 8 µg/mL (≈ 21.1 µM) | MIC [2]: ≤ 2 µg/mL | MIC [3]: 2 to 4 µg/mL (≈ 5.29 to 10.6 µM) | MIC [4]: 16 µg/mL (≈ 42.3 µM) | MIC [5]: ≤ 2 µg/mL | MIC [6]: 16 µg/mL (≈ 42.3 µM) | MIC [7]: 4 µg/mL (≈ 10.6 µM) | MIC [8]: 16 µg/mL (≈ 42.3 µM) | fold increase in carbenicillin susceptibility [9]: circa 8 fold | MIC [10]: 16 µg/mL (≈ 42.3 µM)
